Data from paper PMC2746412 (European journal of pharmacology, 2009).
Read-outs that look alike come from different tables or passages of the source.

Columns and labels:
[1] = target: T1, GFP-hSERT (Homo sapiens, UniProt P31645); assay: Inhibition of [3H]-serotonin uptake in transfected COS-7 cells; type: cell-based
[2] = target: T2, GFP-SmSERT-B (Schistosoma mansoni, UniProt Q3I1M7); assay: cell-based
[3] = target: T3, GFP-SmSERT-A (Schistosoma mansoni, UniProt Q3HL76); assay: cell-based; type: cell-based; conditions: for potency difference versus SmSERTs as compared with hSERT (fold less potent at SmSERTs): SmSERTs (A and B) vs hSERT, from IC50 of Table 1
[4] = target: T1, GFP-hSERT; type: cell-based
[5] = target: T3, GFP-SmSERT-A; assay: [3H]-serotonin efflux experiment in COS-7 cells
[6] = target: T2, GFP-SmSERT-B; assay: [3H]-serotonin efflux experiment in COS-7 cells
[7] = test system: S. mansoni sporocysts; conditions: treatment of the sporocyst snail stage; ref Boyle and Yoshino, 2005; cited from earlier work
[8] = test system: Schistosoma infections; conditions: ref Gryseels et al., 2006; cited from earlier work
[9] = target: SmSERT-A (Schistosoma mansoni, UniProt Q3HL76); assay: Two-electrode voltage clamp of substrate-elicited currents in Xenopus oocytes; type: cell-based; conditions: for substrate-elicited transport-associated currents, SmSERT-A: voltage-clamped Xenopus oocytes
[10] = target: SmSERT-B (Schistosoma mansoni, UniProt Q3I1M7); type: cell-based; conditions: for substrate-elicited transport-associated currents, SmSERT-B: voltage-clamped Xenopus oocytes
[11] = target: T3, GFP-SmSERT-A; type: cell-based; conditions: COS-7 cells
[12] = target: T2, GFP-SmSERT-B; type: cell-based; conditions: COS-7 cells
[13] = test system: S. mansoni adult worms; conditions: ref Wood and Mansour, 1986, cited from earlier work
[14] = test system: S. mansoni sporocysts; conditions: living sporocysts; ref Boyle et al., 2003; cited from earlier work
[15] = read-out: IC50 for serotonin transporter substrates, hSERT
[16] = read-out: IC50 for serotonin transporter substrates, SmSERT-A
[17] = Imax / (Vmax * Faraday constant), same batches of oocytes

T1 sequence (P31645 whole entry): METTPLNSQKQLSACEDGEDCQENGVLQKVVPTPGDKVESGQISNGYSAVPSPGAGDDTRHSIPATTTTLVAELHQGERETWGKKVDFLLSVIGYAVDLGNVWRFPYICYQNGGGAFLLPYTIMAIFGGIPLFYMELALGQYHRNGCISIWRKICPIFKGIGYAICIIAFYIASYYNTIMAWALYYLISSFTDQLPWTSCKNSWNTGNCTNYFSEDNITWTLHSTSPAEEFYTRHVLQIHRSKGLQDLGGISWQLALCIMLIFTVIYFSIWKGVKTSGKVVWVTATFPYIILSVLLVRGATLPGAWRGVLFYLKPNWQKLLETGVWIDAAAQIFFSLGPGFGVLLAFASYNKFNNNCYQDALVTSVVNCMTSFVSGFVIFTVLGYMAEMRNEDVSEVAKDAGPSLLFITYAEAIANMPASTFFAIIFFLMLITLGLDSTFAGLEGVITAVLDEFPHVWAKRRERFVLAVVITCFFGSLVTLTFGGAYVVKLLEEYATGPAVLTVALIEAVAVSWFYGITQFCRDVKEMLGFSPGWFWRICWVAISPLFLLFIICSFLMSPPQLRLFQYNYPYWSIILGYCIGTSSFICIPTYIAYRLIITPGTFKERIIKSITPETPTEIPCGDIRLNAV

## O=[N+]([O-])c1ccc2nc(N3CCNCC3)ccc2c1 [6-Nitroquipazine]
[1]
  IC50: 2 ± 0.4 nM
[2]
  IC50: 4 ± 2 nM
[3]
  IC50: 0.004 ± 0.002 µM
  potency difference versus SmSERTs as compared with hSERT (fold less potent at SmSERTs): two-fold

## CSc1ccc2c(c1)C(N1CCN(C)CC1)Cc1ccccc1S2 (centres unmarked) [Methiothepin]
[1]
  IC50: 6700 ± 4100 nM
[2]
  IC50: 2200 ± 700 nM
[3]
  IC50: 1.9 ± 0.7 µM

## Cl.Cl.Clc1cccc(N2CCNCC2)c1 [m-CPP, m-1-(3-Chlorophenyl)piperazine dihydrochloride]
[4]
  [3H]-serotonin efflux elicited by compound, hSERT: able to elicit serotonin efflux
[5]
  [3H]-serotonin efflux elicited by compound, SmSERT-A: not transported
[1]; [15]
  IC50: 1800 ± 300 nM
[6]
  [3H]-serotonin efflux elicited by compound, SmSERT-B: not transported
[3]; [16]
  IC50: 58 ± 4 µM

## COC(=O)[C@H]1[C@@H](OC(=O)c2ccccc2)C[C@@H]2CC[C@H]1N2C [Cocaine]
[2]
  IC50: 35400 ± 7600 nM
[3]
  IC50: 37.6 ± 16 µM

## CN(C)CCCN1c2ccccc2CCc2ccccc21 [Imipramine]
[2]
  IC50: 300 ± 200 nM
[3]
  IC50: 0.3 ± 0.1 µM

## C[C@H](N)Cc1ccccc1 [S(+)Amphetamine]
[5]
  [3H]-serotonin efflux elicited by compound, SmSERT-A: not transported
[6]
  [3H]-serotonin efflux elicited by compound, SmSERT-B: not transported
[3]; [16]
  IC50: 300 ± 27 µM

## CNC(C)Cc1ccc2c(c1)OCO2 (racemic) [(±)MDMA]
[4]
  [3H]-serotonin efflux elicited by compound, hSERT: able to elicit serotonin efflux
[5]
  [3H]-serotonin efflux elicited by compound, SmSERT-A: not transported
[1]; [15]
  IC50: 2700 ± 500 nM
[6]
  [3H]-serotonin efflux elicited by compound, SmSERT-B: not transported
[3]; [16]
  IC50: 320 ± 162 µM

## CNCCC(Oc1ccc(C(F)(F)F)cc1)c1ccccc1 (centres unmarked) [Fluoxetine]
[7]
  production of daughter sporocysts: prevents the production of daughter sporocysts

## O=C(C1CCCCC1)N1CC(=O)N2CCc3ccccc3C2C1 (centres unmarked) [praziquantel]
[8]
  activity on immature worms and eggs: not active on immature worms and eggs

## NCCc1c[nH]c2ccccc12 [Tryptamine]
[4]
  [3H]-serotonin efflux elicited by compound, hSERT: able to elicit serotonin efflux
[1]
  IC50: 1400 ± 100 nM
[2]
  IC50: 19300 ± 4400 nM
[9]
  substrate-elicited transport-associated currents, SmSERT-A: elicits clear transport associated currents
[10]
  substrate-elicited transport-associated currents, SmSERT-B: elicits clear transport associated currents
[3]
  IC50: 19.6 ± 3.6 µM

## NCCc1c[nH]c2ccc(O)cc12 [serotonin, 5-hydroxytryptamine]
[11]; data not shown
  transport of tritiated substrate by SmSERT-A: transport
[11]; mean ± SD of three experiments
  Vmax of serotonin uptake, SmSERT-A: 1.8 ± 1.4 pmol/min
[11]; read-out: apparent affinity (KT / KM) for serotonin uptake, SmSERT-A, 10 min, room temperature, mean ± SD of three experiments
  Km: 2300 ± 900 nM
[9]; [17]
  charges moved per serotonin molecule transported (Q/Jmax), SmSERT-A: 1.9 charges
[9]
  substrate-elicited transport-associated currents, SmSERT-A: concentration-dependent inward currents
[12]; data not shown
  transport of tritiated substrate by SmSERT-B: transport
[12]; mean ± SD of three experiments
  Vmax of serotonin uptake, SmSERT-B: 1.4 ± 1.1 pmol/min
[12]; read-out: apparent affinity (KT / KM) for serotonin uptake, SmSERT-B, 10 min, room temperature, mean ± SD of three experiments
  Km: 2200 ± 1100 nM
[10]; [17]
  charges moved per serotonin molecule transported (Q/Jmax), SmSERT-B: 1.9 charges
[10]
  substrate-elicited transport-associated currents, SmSERT-B: concentration-dependent inward currents
[13]; living adult female parasites
  apparent affinity for serotonin uptake, adult female worms: 1.46 µM
[13]; living adult male parasites
  apparent affinity for serotonin uptake, adult male worms: 1.73 µM
[14]
  apparent affinity for serotonin uptake in sporocysts: 1.4 µM

## COC(=O)[C@H]1C(c2ccc(I)cc2)C[C@@H]2CC[C@H]1N2C (some centres unmarked) [RTI-55]
[1]; read-out: IC50 for inhibiting serotonin uptake, hSERT
  IC50: 10 ± 10 nM
[2]; read-out: IC50 for inhibiting serotonin uptake, SmSERT-B, COS-7 cells, 100 nM [3H]serotonin, 10 min, mean ± SD
  IC50: 600 ± 400 nM
[3]
  potency difference versus SmSERTs as compared with hSERT (fold less potent at SmSERTs): 60 fold
[3]; read-out: IC50 for inhibiting serotonin uptake, SmSERT-A
  IC50: 0.6 ± 0.4 µM

## COc1ccc2[nH]cc(C3=CCNCC3)c2c1 [RU 24969]
[4]
  [3H]-serotonin efflux elicited by compound, hSERT: able to elicit serotonin efflux
[1]
  IC50: 8500 ± 900 nM
[2]
  IC50: 165000 ± 65000 nM
[3]
  IC50: 180 ± 63 µM
